For one substance, overall response rate results are on record in US9322066B2, “Predictors for cancer treatment” (priority 2011, dated 2016).

The test relates to relapsed or refractory, rituximab-naive or -sensitive follicular B-cell NHL. The experiment in a line: Overall response rate (CR+CRu+PR), Vc-R vs rituximab study, by biomarker. It counts as in vivo, human. The conditions noted are these: Biomarker positive (PSMB1 P11A heterozygote and CD68 Low). The text has this:
Non-Hodgkin lymphoma (NHL) encompasses several unique malignant lymphoid disease entities that vary in clinical behavior, morphologic appearance, immunologic, and molecular phenotype. […] A randomized, open-label, active-controlled, multicenter, multinational, prospective study to compare the efficacy and safety of the combination of bortezomib and rituximab (Vc-R) to single-agent rituximab in subjects who have relapsed or refractory, rituximab-naive or -sensitive follicular B-cell NHL was performed.
Subjects were centrally randomized to Treatment Groups A (Vc-R) or B (rituximab) in a 1:1 ratio taking into account the following stratification factors: • Follicular Lymphoma International Prognostic Index (FLIPI) score (low [0 or 1 factor], intermediate [2 factors], high [≧3 factors]); • Prior rituximab therapy (yes, no); • Time since last dose of anti-lymphoma therapy (≦1 year, >1 year); • Region (United States/Canada, European Union, Rest of World). […]
Comparison of the response rates between the treatment groups was conducted using the Fishers Exact Test. Duration of response, time to response, and time to clinical relapse were analyzed descriptively, where appropriate, and the biomarker subset was compared (if appropriate, determined as per the initial analysis) to the overall clinical cohort, by treatment group and overall. […]

With rituximab, the overall response rate amounted to 47.5%.
